This note sets out measurements from PubChem BioAssay (NCI).

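Protocol summary: plate cells (96-well), add compound at 5 concentrations, incubate 48 h, interpolate endpoints linearly. At the GI50, growth is halved. TGI denotes the concentration required for complete inhibition of growth.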 Where only a bound is given, the exact number is not on record here.

Among the test systems are NCI-H460 lung; SF-268 CNS; LXFL 529 NSCLC; HCT-15 colon; HOP-92 NSCLC; M19-MEL melanoma; HT29 colon; A549 NSCLC; A498 renal; HS 578T breast.
Holding throughout (assay): NCI tumour cell line growth inhibition, 48 h

`CC(=O)O[C@@]1(C)[C@@H](C)C(=O)O[C@@H]2CCN3CC=C(COC(=O)[C@]1(C)O)[C@H]23`: the TGI with NCI-H460 lung, with SF-268 CNS, in the assay with LXFL 529 NSCLC, in the assay with HCT-15 colon, in the assay on HOP-92 NSCLC and in the assay with M19-MEL melanoma was > 100 µM throughout. For the same compound, the TGI in the assay with HT29 colon and with A549 NSCLC was > 100 µM in each case.

For `COc1ccc2c3c(c(C(=O)c4ccccc4)oc13)CCC2`, the TGI with NCI-H460 lung, in the assay on LXFL 529 NSCLC, in the assay on HCT-15 colon, in the assay with M19-MEL melanoma, in the assay with HT29 colon and in the assay on A549 NSCLC was > 100 µM each time. Further, the TGI in the assay on A498 renal is > 100 µM.

As to `Cc1[nH]c(=O)[nH]c1C(=O)c1ccc(-n2ccnc2)cc1`, the TGI in the assay with NCI-H460 lung, with SF-268 CNS, with LXFL 529 NSCLC, in the assay on HCT-15 colon, in the assay on M19-MEL melanoma and in the assay on HT29 colon was > 100 µM throughout. Moreover, the TGI in the assay with A549 NSCLC and with A498 renal was > 100 µM each time.

As for `CC1=C(O)/C(=C/C(C)CCC/C(C)=C/C=C/C(C)CCCc2ccoc2)OC1=O` (centres undefined), the TGI in the assay on NCI-H460 lung was > 100 µM; with SF-268 CNS it was 97.9 µM; in the assay on LXFL 529 NSCLC, > 100 µM; in the assay with M19-MEL melanoma it was > 100 µM; in the assay with HT29 colon, > 100 µM; with A549 NSCLC it was 73.6 µM.

Turning to `COC(=O)C(C(=O)C(=O)Nc1cccc([N+](=O)[O-])c1)c1nc2ccc([N+](=O)[O-])cc2[nH]c1=O` (centres undefined), the TGI with NCI-H460 lung, with SF-268 CNS, in the assay on LXFL 529 NSCLC, in the assay with HCT-15 colon, with M19-MEL melanoma and in the assay with HT29 colon was > 100 µM each time. For the same compound, the TGI in the assay on A549 NSCLC and in the assay on A498 renal was > 100 µM each time.

As to `CC(=O)[CH-]C(=O)c1ccccc1.CC(=O)[CH-]C(=O)c1ccccc1.Cc1cc([O-])ccc1Cl.Cc1cc([O-])ccc1Cl.[Ti+4]`, the GI50 was 22.6 µM with NCI-H460 lung; 19.5 µM in the assay on SF-268 CNS; 22.1 µM in the assay with LXFL 529 NSCLC; 25.6 µM in the assay with HCT-15 colon; 28.9 µM in the assay on HT29 colon; 37.6 µM with A549 NSCLC. Besides, the GI50 in the assay on A498 renal was 17.2 µM. The TGI was > 100 µM in the assay on NCI-H460 lung; 74.8 µM in the assay with SF-268 CNS; > 100 µM with LXFL 529 NSCLC; > 100 µM with HCT-15 colon; 95.5 µM in the assay on HT29 colon; > 100 µM in the assay on A549 NSCLC. This compound also registered a TGI in the assay with A498 renal of 42.8 µM.

Take `CCc1cc(CCC(=O)Nc2ccccc2[N+](=O)[O-])[nH]c(=S)n1`: the TGI in the assay with NCI-H460 lung, in the assay with SF-268 CNS, with LXFL 529 NSCLC, in the assay on HCT-15 colon, in the assay on HOP-92 NSCLC and in the assay with M19-MEL melanoma was > 100 µM each time. The TGI in the assay with HT29 colon and with A549 NSCLC was > 100 µM each time.

For the compound `CN(CC(=O)Nc1nc2ccccc2[nH]1)S(=O)(=O)c1ccc(Cl)cc1`, the GI50 was > 100 µM in the assay with NCI-H460 lung; 43.2 µM with SF-268 CNS; > 100 µM in the assay with HCT-15 colon; > 100 µM in the assay with HOP-92 NSCLC; 65 µM with HS 578T breast; > 100 µM with HT29 colon. The GI50 in the assay with A549 NSCLC and with A498 renal was > 100 µM throughout. In addition, the TGI in the assay on NCI-H460 lung, in the assay on SF-268 CNS, in the assay on HCT-15 colon, with HOP-92 NSCLC, in the assay on HS 578T breast and in the assay on HT29 colon was > 100 µM each time. Further, the TGI with A549 NSCLC and in the assay on A498 renal was > 100 µM in each case.

Consider `Cc1ccc(C(=O)/C(=C\c2ccc([N+](=O)[O-])cc2)S(=O)Cc2ccc(Cl)cc2)cc1` (centres undefined), for which the GI50 was 1.84 µM with NCI-H460 lung; 1.75 µM in the assay with SF-268 CNS; 1.61 µM in the assay on HCT-15 colon; 1.64 µM with HOP-92 NSCLC; 2.48 µM in the assay with HS 578T breast; 1.88 µM in the assay on HT29 colon. Also, the GI50 in the assay on A549 NSCLC is 3.05 µM; in the assay with A498 renal it was 2.61 µM. Further, the TGI came to 3.9 µM in the assay on NCI-H460 lung; 3.42 µM with SF-268 CNS; 3.75 µM with HCT-15 colon; 3.45 µM in the assay with HOP-92 NSCLC; 7.39 µM in the assay with HS 578T breast; 4.3 µM in the assay on HT29 colon. The TGI in the assay with A549 NSCLC was 11 µM; with A498 renal, 7.63 µM.

As for `Cc1cn2c(/C=N/N=C(N)N)c(-c3ccccn3)nc2s1`, the GI50 in the assay with NCI-H460 lung was 14.9 µM; in the assay with SF-268 CNS it was 8.62 µM; in the assay with HCT-15 colon it was 19.5 µM; with HOP-92 NSCLC it was 7.35 µM; in the assay with HS 578T breast, 19.5 µM; in the assay on HT29 colon, 19.4 µM. Moreover, the results for the GI50 in the assay with A549 NSCLC and with A498 renal were 21.1 µM and 17.8 µM, respectively. Further, the TGI is > 75.6 µM in the assay on NCI-H460 lung; 45.4 µM in the assay on SF-268 CNS; 39.1 µM in the assay on HCT-15 colon; 16.9 µM with HOP-92 NSCLC; 55.6 µM with HS 578T breast; > 92.8 µM with HT29 colon. The TGI in the assay with A549 NSCLC was > 70.1 µM; in the assay with A498 renal it was 34 µM.

For the compound `C/C(=N\NC(=S)SCc1ccccc1)c1ccccn1`, the TGI in the assay on NCI-H460 lung was 10.6 µM; in the assay with SF-268 CNS, 11.4 µM; in the assay on HCT-15 colon, 12.1 µM; in the assay with HOP-92 NSCLC, 2.14 µM; in the assay on HS 578T breast, 26.3 µM; in the assay with HT29 colon, 15.6 µM. In addition, the TGI in the assay on A549 NSCLC worked out at 20.5 µM; with A498 renal, 8.73 µM.

Consider `O=C(CCn1[nH]c(=O)c(Cl)c(Cl)c1=O)NNC(=O)C[n+]1ccccc1`, for which the TGI with NCI-H460 lung, with SF-268 CNS, in the assay with LXFL 529 NSCLC, in the assay with HCT-15 colon, in the assay on M19-MEL melanoma and in the assay with HT29 colon was > 100 µM each time. Besides, the TGI in the assay on A549 NSCLC and in the assay on A498 renal was > 100 µM throughout.

For the compound `CC1(C)NCCC[C@]2(C)[C@H]3CC[C@@H]4[C@H]5[C@H](C(=O)/C=C/c6ccccn6)CC[C@]5(CO)CC[C@@]4(C)[C@]3(C)CC[C@@H]12`, the GI50 in the assay on NCI-H460 lung was 1.78 µM; in the assay on SF-268 CNS it was 11.2 µM; with HCT-15 colon, 1.84 µM; with HOP-92 NSCLC, 1.99 µM; with HS 578T breast it was 4.39 µM; in the assay on HT29 colon, 2.85 µM. In addition, the GI50 in the assay on A549 NSCLC is 2.88 µM; in the assay on A498 renal, 8.7 µM. For the same compound, the TGI was found to be 3.49 µM in the assay on NCI-H460 lung; 31.2 µM in the assay on SF-268 CNS; 3.89 µM in the assay on HCT-15 colon; 7.73 µM in the assay on HOP-92 NSCLC; 23.6 µM in the assay on HS 578T breast; 11.3 µM in the assay on HT29 colon. The TGI turned out to be 11.2 µM in the assay on A549 NSCLC and 23.5 µM in the assay with A498 renal.
